Source: PubChem BioAssay (NCI)
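Interpolation was linear, between the two tested concentrations surrounding the appropriate level; five concentrations were tested over 48 hours in 96-well plates. At the GI50, growth is halved. At the TGI there is no net growth.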

Tests used:
Assay in all cases: growth of human tumour cells (NCI), 48 h
786-0 renal = tested on: 786-0 renal
A498 renal = tested on: A498 renal
A549 NSCLC = tested on: A549 NSCLC
ACHN renal = tested on: ACHN renal
BT-549 breast = tested on: BT-549 breast
CAKI-1 renal = tested on: CAKI-1 renal
CCRF-CEM leukemia = tested on: CCRF-CEM leukemia
COLO 205 colon = tested on: COLO 205 colon
DU-145 prostate = tested on: DU-145 prostate
EKVX NSCLC = tested on: EKVX NSCLC
HCC-2998 colon = tested on: HCC-2998 colon
HCT-116 colon = tested on: HCT-116 colon
HCT-15 colon = tested on: HCT-15 colon
HL-60(TB) leukemia = tested on: HL-60(TB) leukemia
HOP-62 NSCLC = tested on: HOP-62 NSCLC
HOP-92 NSCLC = tested on: HOP-92 NSCLC
HS 578T breast = tested on: HS 578T breast
HT29 colon = tested on: HT29 colon
IGROV1 ovarian = tested on: IGROV1 ovarian
K-562 leukemia = tested on: K-562 leukemia
KM12 colon = tested on: KM12 colon
LOX IMVI melanoma = tested on: LOX IMVI melanoma
M14 melanoma = tested on: M14 melanoma
MALME-3M melanoma = tested on: MALME-3M melanoma
MCF7 breast = tested on: MCF7 breast
MDA-MB-231 breast = tested on: MDA-MB-231 breast
MDA-MB-435 = tested on: MDA-MB-435
MDA-MB-468 breast = tested on: MDA-MB-468 breast
MOLT-4 leukemia = tested on: MOLT-4 leukemia
NCI-H226 lung = tested on: NCI-H226 lung
NCI-H23 lung = tested on: NCI-H23 lung
NCI-H460 lung = tested on: NCI-H460 lung
NCI-H522 lung = tested on: NCI-H522 lung
OVCAR-3 ovarian = tested on: OVCAR-3 ovarian
OVCAR-4 ovarian = tested on: OVCAR-4 ovarian
OVCAR-5 ovarian = tested on: OVCAR-5 ovarian
OVCAR-8 ovarian = tested on: OVCAR-8 ovarian
PC-3 prostate = tested on: PC-3 prostate
RPMI-8226 leukemia = tested on: RPMI-8226 leukemia
RXF 393 renal = tested on: RXF 393 renal
SF-268 CNS = tested on: SF-268 CNS
SF-295 CNS = tested on: SF-295 CNS
SF-539 CNS = tested on: SF-539 CNS
SK-MEL-2 melanoma = tested on: SK-MEL-2 melanoma
SK-MEL-28 melanoma = tested on: SK-MEL-28 melanoma
SK-MEL-5 melanoma = tested on: SK-MEL-5 melanoma
SK-OV-3 ovarian = tested on: SK-OV-3 ovarian
SN12C renal = tested on: SN12C renal
SNB-19 CNS = tested on: SNB-19 CNS
SR leukemia = tested on: SR leukemia
SW-620 colon = tested on: SW-620 colon
T-47D breast = tested on: T-47D breast
TK-10 renal = tested on: TK-10 renal
U251 CNS = tested on: U251 CNS
UACC-257 melanoma = tested on: UACC-257 melanoma
UACC-62 melanoma = tested on: UACC-62 melanoma
UO-31 renal = tested on: UO-31 renal

Question: Which GI50 (786-0 renal) does the source give for `Cn1cc(-c2cc(N)n3nc(-c4c[nH]c5ccc(F)cc45)cc3n2)c2cccnc21` here?
Answer: 1.64 µM

Question: What about the TGI (786-0 renal) of the same molecule?
Answer: 3.11 µM

Question: And the GI50 (A498 renal)?
Answer: 17 µM

Question: And the TGI (A498 renal)?
Answer: 30.9 µM

Question: What about the GI50 (A549 NSCLC) of the same molecule?
Answer: 2.48 µM

Question: And the TGI (A549 NSCLC)?
Answer: 7.91 µM

Question: And the GI50 (ACHN renal)?
Answer: 1.71 µM

Question: What about the TGI (ACHN renal) of the same molecule?
Answer: 3.23 µM

Question: What about the GI50 (BT-549 breast) of the same molecule?
Answer: 12.8 µM

Question: And the TGI (BT-549 breast)?
Answer: 28.1 µM

Question: What about the GI50 (CAKI-1 renal) of the same molecule?
Answer: 2.21 µM

Question: And the TGI (CAKI-1 renal)?
Answer: 6.42 µM

Question: What about the GI50 (CCRF-CEM leukemia) of the same molecule?
Answer: 2.35 µM

Question: And the TGI (CCRF-CEM leukemia)?
Answer: 7.74 µM

Question: And the GI50 (COLO 205 colon)?
Answer: 1.78 µM

Question: What about the TGI (COLO 205 colon) of the same molecule?
Answer: 3.46 µM

Question: What about the GI50 (DU-145 prostate) of the same molecule?
Answer: 2.06 µM

Question: And the TGI (DU-145 prostate)?
Answer: 4.4 µM

Question: And the GI50 (EKVX NSCLC)?
Answer: 3.47 µM

Question: What about the TGI (EKVX NSCLC) of the same molecule?
Answer: 14.9 µM

Question: What about the GI50 (HCC-2998 colon) of the same molecule?
Answer: 1.79 µM

Question: What about the TGI (HCC-2998 colon) of the same molecule?
Answer: 3.33 µM

Question: What about the GI50 (HCT-116 colon) of the same molecule?
Answer: 1.9 µM

Question: What about the TGI (HCT-116 colon) of the same molecule?
Answer: 3.6 µM

Question: What about the GI50 (HCT-15 colon) of the same molecule?
Answer: 1.82 µM

Question: And the TGI (HCT-15 colon)?
Answer: 4.14 µM

Question: And the GI50 (HL-60(TB) leukemia)?
Answer: 1.9 µM

Question: What about the TGI (HL-60(TB) leukemia) of the same molecule?
Answer: 4.71 µM

Question: And the GI50 (HOP-62 NSCLC)?
Answer: 8.69 µM

Question: And the TGI (HOP-62 NSCLC)?
Answer: 21.2 µM

Question: And the GI50 (HOP-92 NSCLC)?
Answer: 14.2 µM

Question: What about the TGI (HOP-92 NSCLC) of the same molecule?
Answer: 39 µM

Question: What about the GI50 (HS 578T breast) of the same molecule?
Answer: 16.9 µM

Question: What about the TGI (HS 578T breast) of the same molecule?
Answer: 54.2 µM

Question: And the GI50 (HT29 colon)?
Answer: 1.91 µM

Question: And the TGI (HT29 colon)?
Answer: 3.85 µM

Question: And the GI50 (IGROV1 ovarian)?
Answer: 2.24 µM

Question: And the TGI (IGROV1 ovarian)?
Answer: 5.39 µM

Question: And the GI50 (K-562 leukemia)?
Answer: 3.42 µM

Question: What about the TGI (K-562 leukemia) of the same molecule?
Answer: 28.3 µM

Question: What about the GI50 (KM12 colon) of the same molecule?
Answer: 2.5 µM

Question: And the TGI (KM12 colon)?
Answer: 6.26 µM

Question: What about the GI50 (LOX IMVI melanoma) of the same molecule?
Answer: 1.8 µM

Question: And the TGI (LOX IMVI melanoma)?
Answer: 3.29 µM

Question: And the GI50 (M14 melanoma)?
Answer: 1.88 µM

Question: And the TGI (M14 melanoma)?
Answer: 4.01 µM

Question: And the GI50 (MALME-3M melanoma)?
Answer: 1.75 µM

Question: And the TGI (MALME-3M melanoma)?
Answer: 3.59 µM

Question: What about the GI50 (MCF7 breast) of the same molecule?
Answer: 2.01 µM

Question: What about the TGI (MCF7 breast) of the same molecule?
Answer: 4.19 µM

Question: What about the GI50 (MDA-MB-231 breast) of the same molecule?
Answer: 1.92 µM

Question: And the TGI (MDA-MB-231 breast)?
Answer: 3.7 µM

Question: What about the GI50 (MDA-MB-435) of the same molecule?
Answer: 1.92 µM

Question: What about the TGI (MDA-MB-435) of the same molecule?
Answer: 4.18 µM

Question: What about the GI50 (MDA-MB-468 breast) of the same molecule?
Answer: 1.66 µM

Question: What about the TGI (MDA-MB-468 breast) of the same molecule?
Answer: 3.27 µM

Question: What about the GI50 (MOLT-4 leukemia) of the same molecule?
Answer: 2.42 µM

Question: What about the TGI (MOLT-4 leukemia) of the same molecule?
Answer: 7.73 µM

Question: And the GI50 (NCI-H226 lung)?
Answer: 1.92 µM

Question: What about the TGI (NCI-H226 lung) of the same molecule?
Answer: 4 µM

Question: What about the GI50 (NCI-H23 lung) of the same molecule?
Answer: 2.52 µM

Question: What about the TGI (NCI-H23 lung) of the same molecule?
Answer: 7.67 µM

Question: And the GI50 (NCI-H460 lung)?
Answer: 1.8 µM

Question: What about the TGI (NCI-H460 lung) of the same molecule?
Answer: 3.61 µM

Question: What about the GI50 (NCI-H522 lung) of the same molecule?
Answer: 13.8 µM

Question: What about the TGI (NCI-H522 lung) of the same molecule?
Answer: 27.4 µM

Question: And the GI50 (OVCAR-3 ovarian)?
Answer: 1.82 µM

Question: And the TGI (OVCAR-3 ovarian)?
Answer: 3.69 µM

Question: What about the GI50 (OVCAR-4 ovarian) of the same molecule?
Answer: 11.6 µM

Question: What about the TGI (OVCAR-4 ovarian) of the same molecule?
Answer: 30 µM

Question: And the GI50 (OVCAR-5 ovarian)?
Answer: 3.33 µM

Question: What about the TGI (OVCAR-5 ovarian) of the same molecule?
Answer: 13.4 µM

Question: And the GI50 (OVCAR-8 ovarian)?
Answer: 3.18 µM

Question: What about the TGI (OVCAR-8 ovarian) of the same molecule?
Answer: 11 µM

Question: What about the GI50 (PC-3 prostate) of the same molecule?
Answer: 3.26 µM

Question: And the TGI (PC-3 prostate)?
Answer: 13.4 µM

Question: What about the GI50 (RPMI-8226 leukemia) of the same molecule?
Answer: 2.43 µM

Question: And the TGI (RPMI-8226 leukemia)?
Answer: 7.74 µM

Question: And the GI50 (RXF 393 renal)?
Answer: 1.77 µM

Question: What about the TGI (RXF 393 renal) of the same molecule?
Answer: 3.35 µM

Question: What about the GI50 (SF-268 CNS) of the same molecule?
Answer: 11.6 µM

Question: And the TGI (SF-268 CNS)?
Answer: 39.6 µM

Question: And the GI50 (SF-295 CNS)?
Answer: 1.69 µM

Question: And the TGI (SF-295 CNS)?
Answer: 3.17 µM

Question: What about the GI50 (SF-539 CNS) of the same molecule?
Answer: 1.78 µM

Question: What about the TGI (SF-539 CNS) of the same molecule?
Answer: 3.25 µM

Question: And the GI50 (SK-MEL-2 melanoma)?
Answer: 12.6 µM

Question: And the TGI (SK-MEL-2 melanoma)?
Answer: 25.2 µM

Question: What about the GI50 (SK-MEL-28 melanoma) of the same molecule?
Answer: 1.7 µM

Question: What about the TGI (SK-MEL-28 melanoma) of the same molecule?
Answer: 3.17 µM

Question: What about the GI50 (SK-MEL-5 melanoma) of the same molecule?
Answer: 11.6 µM

Question: And the TGI (SK-MEL-5 melanoma)?
Answer: 24.1 µM

Question: And the GI50 (SK-OV-3 ovarian)?
Answer: 18.1 µM

Question: What about the TGI (SK-OV-3 ovarian) of the same molecule?
Answer: 39.2 µM

Question: What about the GI50 (SN12C renal) of the same molecule?
Answer: 13.1 µM

Question: And the TGI (SN12C renal)?
Answer: 26.2 µM

Question: And the GI50 (SNB-19 CNS)?
Answer: 4.05 µM

Question: And the TGI (SNB-19 CNS)?
Answer: 16.2 µM

Question: And the GI50 (SR leukemia)?
Answer: 2.8 µM

Question: And the TGI (SR leukemia)?
Answer: > 100 µM

Question: And the GI50 (SW-620 colon)?
Answer: 1.83 µM

Question: What about the TGI (SW-620 colon) of the same molecule?
Answer: 3.78 µM

Question: What about the GI50 (T-47D breast) of the same molecule?
Answer: 2.9 µM

Question: What about the TGI (T-47D breast) of the same molecule?
Answer: 13.2 µM

Question: What about the GI50 (TK-10 renal) of the same molecule?
Answer: 2.95 µM

Question: And the TGI (TK-10 renal)?
Answer: 11.1 µM

Question: What about the GI50 (U251 CNS) of the same molecule?
Answer: 2 µM

Question: And the TGI (U251 CNS)?
Answer: 4.1 µM

Question: What about the GI50 (UACC-257 melanoma) of the same molecule?
Answer: 14.8 µM

Question: And the TGI (UACC-257 melanoma)?
Answer: 28 µM

Question: What about the GI50 (UACC-62 melanoma) of the same molecule?
Answer: 1.77 µM

Question: What about the TGI (UACC-62 melanoma) of the same molecule?
Answer: 3.34 µM

Question: What about the GI50 (UO-31 renal) of the same molecule?
Answer: 1.66 µM

Question: What about the TGI (UO-31 renal) of the same molecule?
Answer: 3.24 µM
